Measured values from patent US7179926B2, “Aryloxyalkylamine NK-1/SSRI inhibitors” (Bristol-Myers Squibb Company, priority 2004, dated 2007).

Assays:
[1] = target: T1, neurokinin-1 (NK-1) receptor (Homo sapiens, UniProt P25103); assay: NK-1 Binding assay ([125I] Substance P competition, U373 cell membranes); settings: Bolton Hunter labeled [125I] Substance P, 30 min at 20° C.
T1 construct: endogenously expresses the neurokinin-1 (NK-1) receptor; endogenous in cells; host or cells: U373 human glioblastoma-astrocytoma cells (membranes)
Procedure: NK-1 Binding assay. U373 cells, a human glioblastoma-astrocytoma cell line that endogenously expresses the neurokinin-1 (NK-1) receptor, were grown in a monolayer culture at 37° C. in 5% CO2 and fed with Minimum Essential Medium (MEM) supplemented with 10% fetal bovine serum. Membranes were prepared as follows: Cells were washed twice with ice-cold phosphate-buffered saline (pH 7.4) and then incubated for 5–10 minutes with ice-cold 10 mM Tris buffer (pH 7.4) containing 5 mM EDTA. Cells were removed from plates, homogenized, and centrifuged at 32,000×g for 20 minutes. The resulting supernatant was discarded, and the pellet resuspended by homogenization in 50 mM Tris buffer (pH 7.4) containing 1 mM EDTA and centrifuged at 32,000×g for 20 minutes. The resulting supernatant was discarded, and the pellet resuspended by homogenization in NK-1 binding assay buffer (50 mM Tris-HCL (pH 7.4), 3 mM MnCl2, 200 μg/ml BSA, 5 μg/ml chymostatin, 40 μg/ml bacitracin and 4 μg/ml leupeptin).
On the day of an experiment the membrane preparation was thawed, homogenized and diluted with NK-1 binding assay buffer to the appropriate concentration. Competition binding assays were performed in 96 well plate format by incubating membranes (5–10 μg/well) with Bolton Hunter labeled [^125I] Substance P, at a concentration of […], and concentrations of drugs ranging from 10000 to 0.01 nM. Samples were incubated for 30 min at 20° C. then filtered through GF/B glass fiber filters (pretreated with 1% polyethyleneimine and 0.3% Triton X-100) using a Brandel cell harvester. The filters were then washed with 10 ml ice cold 50 mM Tris-HCL (pH 7.4) containing 3 mM MgCl2. Non-specific was defined in the presence of 2 μM L-733,060 (a non-peptide NK-1 antagonist). The amount of radioligand bound in the presence and absence of competitor was analyzed by plotting (−)log drug concentration versus the amount of radioligand specifically bound. The midpoint of the displacement curve (IC50, nM), signifies the potency. Ki values can be calculated using the method of Cheng and Prusoff (Cheng and Prusoff, Biochemical Pharmacology, Vol 22, pp. 3099–3108, Pergamon Press (1973)).

[2] = target: T2, human serotonin transporters (Homo sapiens, UniProt P31645); assay: Serotonin transporter binding assay ([3H]-citalopram competition, HEK-hSERT cell membranes); settings: 1 nM [3H]-citalopram, 1 hr at 25° C., read-out: SERT IC50
T2 construct: expressed in transfected cells
Procedure: Serotonin transporter binding assay. HEK-293 cells that stably express human serotonin transporters (HEK-hSERT cells) were grown at 37° C. in 5% CO2 as a monolayer in medium consisting of EMEM supplemented with 10% fetal bovine serum and G418 sulfate (500 μg/ml). To prepare membranes for radioligand binding experiments, cells were rinsed twice with phosphate-buffered saline (138 mM NaCl, 4.1 mM KCl, 5.1 mM Na2PO4, 1.5 mM KH2PO4, 11.1 mM glucose, pH 7.4). Cells were transferred from plates to polypropylene tubes (16×100 mm), centrifuged at 1,200×g for 5 min and were frozen at −80° C. until assay. Following centrifugation, pellets were resuspended by homogenization in buffer consisting of 50 mM Tris (pH 7.7 at 25° C.), 120 mM NaCl and 5 mM KCl and then centrifuged at 32,000×g for 10 min. Following centrifugation, supernatants were discarded and pellets were resuspended in buffer consisting of 50 mM Tris (pH 7.4 at 25° C.), 150 mM NaCl and 5 mM KCl. Membrane homogenates (200 μl/plate) were incubated with 1 nM [^3H]-citalopram (specific activity=85 Ci/mmol) and increasing concentrations of test compounds for 1 hr at 25° C. in a total volume of 250 μl. The assay buffer consisted of 50 mM Tris (pH 7.4 at 25° C.), 120 mM NaCl and 5 mM KCl (pH 7.4 with conc. HCl). Plates were incubated for 1 hr at 25° C., then filtered through 0.5% PEI treated Whatman GF/B filters using a Brandel cell harvester. Filters were washed three times with 3 ml of ice-cold tris wash buffer. Non-specific binding was defined with 10 μM fluoxetine. Amount of radioligand bound in the presence and absence of competitor was analyzed by plotting (−)log drug concentration versus the amount of radioligand specifically bound. The midpoint of the displacement curve (IC50, nM), signifies the potency. Ki values can be calculated using the method of Cheng and Prusoff (Cheng and Prusoff, Biochemical Pharmacology, Vol 22, pp. 3099–3108, Pergamon Press (1973)).

T2 sequence (P31645 whole entry): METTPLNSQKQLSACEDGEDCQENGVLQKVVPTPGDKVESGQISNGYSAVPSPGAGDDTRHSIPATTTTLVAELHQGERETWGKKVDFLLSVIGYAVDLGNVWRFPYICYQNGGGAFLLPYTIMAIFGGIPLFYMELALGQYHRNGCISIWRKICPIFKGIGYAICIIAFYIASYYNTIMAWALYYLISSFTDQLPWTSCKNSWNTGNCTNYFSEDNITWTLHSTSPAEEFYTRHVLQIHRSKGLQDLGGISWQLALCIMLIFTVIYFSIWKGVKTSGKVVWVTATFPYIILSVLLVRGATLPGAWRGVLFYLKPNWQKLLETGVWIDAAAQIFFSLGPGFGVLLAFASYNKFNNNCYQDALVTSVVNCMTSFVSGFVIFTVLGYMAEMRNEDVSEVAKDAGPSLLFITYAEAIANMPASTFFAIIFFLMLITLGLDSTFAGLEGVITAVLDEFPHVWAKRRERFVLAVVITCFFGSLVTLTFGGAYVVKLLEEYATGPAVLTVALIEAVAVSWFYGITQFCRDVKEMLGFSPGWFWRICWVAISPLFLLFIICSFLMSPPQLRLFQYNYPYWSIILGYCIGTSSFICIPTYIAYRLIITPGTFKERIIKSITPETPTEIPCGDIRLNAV
T1 sequence (P25103 whole entry): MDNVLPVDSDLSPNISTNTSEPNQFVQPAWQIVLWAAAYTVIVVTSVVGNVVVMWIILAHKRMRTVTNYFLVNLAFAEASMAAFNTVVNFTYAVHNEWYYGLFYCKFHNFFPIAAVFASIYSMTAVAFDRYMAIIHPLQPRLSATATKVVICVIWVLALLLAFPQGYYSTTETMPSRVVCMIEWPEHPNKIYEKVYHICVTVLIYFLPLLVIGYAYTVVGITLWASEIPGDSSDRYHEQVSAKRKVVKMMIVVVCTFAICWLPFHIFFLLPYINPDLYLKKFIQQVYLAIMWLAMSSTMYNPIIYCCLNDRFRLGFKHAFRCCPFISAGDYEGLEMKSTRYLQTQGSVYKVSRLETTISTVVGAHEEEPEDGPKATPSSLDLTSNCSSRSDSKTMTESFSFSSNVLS

SMILES	IC50 [1] [nM]	IC50 [2] [nM]
NCCC(O)(COCc1ccccc1)c1ccccc1 (centres unmarked) [Example 47, 4-amino-1-(benzyloxy)-2-phenylbutan-2-ol]	> 300	> 300
NCCC(O)(COCc1ccc(Cl)cc1)c1ccccc1 (centres unmarked) [Example 70, 1-(4-chlorobenzyloxy)-4-amino-2-phenylbutan-2-ol]	> 300	1 to 100
NCCC(O)(COCc1cc(C(F)(F)F)cc(C(F)(F)F)c1)c1cc(F)cc(F)c1 (centres unmarked) [Example 19, 1-(3,5-bis(trifluoromethyl)benzyloxy)-4-amino-2-(3,5-difluorophenyl)butan-2-ol]	1 to 100	100 to 300
NCCC(O)(COCc1cc(C(F)(F)F)cc(C(F)(F)F)c1)c1ccc(Cl)c(Cl)c1 (centres unmarked) [Example 10, 1-(3,5-bis(trifluoromethyl)benzyloxy)-4-amino-2-(3,4-dichlorophenyl)butan-2-ol]	1 to 100	100 to 300
NCCC(O)(COCc1cc(C(F)(F)F)cc(C(F)(F)F)c1)c1cc(F)cc(Cl)c1 (centres unmarked) [Example 24, 1-(3,5-bis(trifluoromethyl)benzyloxy)-4-amino-2-(3-chloro-5-fluorophenyl)butan-2-ol]	1 to 100	100 to 300
NCCC(O)(COCc1cccc(OC(F)(F)F)c1)c1ccccc1 (centres unmarked) [Example 69, 1-(3-(trifluoromethoxy)benzyloxy)-4-amino-2-phenylbutan-2-ol]	> 300	1 to 100
NCCC(O)(COCc1ccccc1Cl)c1ccccc1 (centres unmarked) [Example 50, 1-(2-chlorobenzyloxy)-4-amino-2-phenylbutan-2-ol]	> 300	1 to 100
CNCCC(C)(COCc1cc(C(F)(F)F)cc(C(F)(F)F)c1)c1ccccc1 (centres unmarked) [Example 75, 1-(3,5-bis(trifluoromethyl)benzyloxy)-4-methylamino-2-methyl-2-phenylbutane]	1 to 100	100 to 300
CN(C)CCC(COCc1cc(C(F)(F)F)cc(C(F)(F)F)c1)c1ccccc1 (centres unmarked) [Example 73, 1-(3,5-bis(trifluoromethyl)benzyloxy)-4-dimethylamino-2-phenylbutane]	1 to 100	1 to 100
Cc1ccccc1C(O)(CCN)COCc1cc(C(F)(F)F)cc(C(F)(F)F)c1 (centres unmarked) [Example 43, 1-(3,5-bis(trifluoromethyl)benzyloxy)-4-amino-2-o-tolylbutan-2-ol]	1 to 100	1 to 100
NCCC(O)(COCc1cc(Br)cc(Br)c1)c1ccccc1 (centres unmarked) [Example 68, 1-(3,5-dibromobenzyloxy)-4-amino-2-phenylbutan-2-ol]	1 to 100	1 to 100
CCc1ccc(C(O)(CCN)COCc2cc(C(F)(F)F)cc(C(F)(F)F)c2)cc1 (centres unmarked) [Example 38, 1-(3,5-bis(trifluoromethyl)benzyloxy)-4-amino-2-(4-ethylphenyl)butan-2-ol]	100 to 300	1 to 100
COc1ccc(C(O)(CCN)COCc2cc(C(F)(F)F)cc(C(F)(F)F)c2)c(C)c1 (centres unmarked) [Example 28, 1-(3,5-bis(trifluoromethyl)benzyloxy)-4-amino-2-(4-methoxy-2-methylphenyl)butan-2-ol]	100 to 300	1 to 100
CN(C)CCC(O)(COCc1cc(C(F)(F)F)cc(C(F)(F)F)c1)c1ccccc1 (centres unmarked) [Example 5, 1-(3,5-bis(trifluoromethyl)benzyloxy)-4-(dimethylamino)-2-phenylbutan-2-ol]	1 to 100	> 300
CN(C)c1ccc(C(O)(CCN)COCc2cc(C(F)(F)F)cc(C(F)(F)F)c2)cc1 (centres unmarked) [Example 16, 1-(3,5-bis(trifluoromethyl)benzyloxy)-4-amino-2-(4-(dimethylamino)phenyl)butan-2-ol]	> 300	> 300
COc1ccccc1C(O)(CCN)COCc1cc(C(F)(F)F)cc(C(F)(F)F)c1 (centres unmarked) [Example 45, 1-(3,5-bis(trifluoromethyl)benzyloxy)-4-amino-2-(2-methoxyphenyl)butan-2-ol]	1 to 100	1 to 100
NCCC(O)(COCc1cc(C(F)(F)F)cc(C(F)(F)F)c1)c1ccccc1 (centres unmarked) [Example 4, 1-(3,5-bis(trifluoromethyl)benzyloxy)-4-amino-2-phenylbutan-2-ol]	1 to 100	1 to 100
NCCC(O)(COCc1cc(C(F)(F)F)cc(C(F)(F)F)c1)c1ccc(Cl)cc1 (centres unmarked) [Example 42, 1-(3,5-bis(trifluoromethyl)benzyloxy)-4-amino-2-(4-chlorophenyl)butan-2-ol]	1 to 100	1 to 100
Cc1cc(F)ccc1C(O)(CCN)COCc1cc(C(F)(F)F)cc(C(F)(F)F)c1 (centres unmarked) [Example 31, 1-(3,5-bis(trifluoromethyl)benzyloxy)-4-amino-2-(4-fluoro-2-methylphenyl)butan-2-ol]	1 to 100	1 to 100
NCCC(O)(COCc1ccccc1F)c1ccccc1 (centres unmarked) [Example 57, 1-(2-fluorobenzyloxy)-4-amino-2-phenylbutan-2-ol]	> 300	> 300
NCCC(O)(COCc1cc(Cl)cc(Cl)c1)c1ccccc1 (centres unmarked) [Example 61, 1-(3,5-dichlorobenzyloxy)-4-amino-2-phenylbutan-2-ol]	1 to 100	1 to 100
Cc1cc(Cl)ccc1C(O)(CCN)COCc1cc(C(F)(F)F)cc(C(F)(F)F)c1 (centres unmarked) [Example 40, 1-(3,5-bis(trifluoromethyl)benzyloxy)-4-amino-2-(4-chloro-2-methylphenyl)butan-2-ol]	1 to 100	1 to 100
